US20240279641A1, “Structural Neuroplasticity Enhancer Screen” (Northwestern University, priority 2021, published 2024)

What was measured:
Format in all cases: cell-based, mouse
[1] = test system: primary hippocampal and cortical neurons; assay: SARE-ArcMin-luciferase-PSD95-mVenus luciferase assay in primary neuronal cultures, 96-well; details: hippocampal vs cortical primary cultures, 96-well plate
Description: (§1) Animals were handled according to protocols approved by the Northwestern University Animal Care and Use Committee. Cortical neurons were harvested from mouse embryos euthanized at embryonic day 18 and plated in poly-D-lysine coated plates. Embryonic brains were dissected in ice-cold dissection media (Hank's balance salt solution HBSS, 2% penicillin-streptomycin, 20 mM HEPES). Meninges were removed from each brain and cortices were dissected out. The cortices were chopped into small pieces using a microscissors and pooled in 5 mL dissection media containing 0.25% trypsin and 0.1% DNasel and trypsinised at 37° ° C. for 20-25 min. Cortices were washed twice with warm dissection media, and once with warm plating medium (MEM, supplemented with 10% heat-inactivated horse serum, 0.6% glucose, 1 mM Na pyruvate, 1% Glutamax, 1% penicillin-streptomycin) for 5 min each. Tissues were titurated in 3 mL fresh plating medium with unpolished and, subsequently, polished glass Pasteur pipettes. 1 k, 80 k, 150 k, 2500 k cells were seeded in 384-well, 12-well, 6-well plates, 10-cm dishes, respectively. […]
Luciferase substrate systems were prepared according to the Manufacturer's instructions. […] Plates were read by Biotek Syngery Neo2 plate reader. […]

primary cortical neurons = assay: Western blot of biotinylation by TurboID constructs in cortical neurons; details: 55 mM KCl
Description: as §1, with “pipettes.” for “pipettes. 1 k, 80 k, 150 k, 2500 k cells were seeded in 384-well, 12-well, 6-well plates, 10-cm dishes, respectively.”
Cell pellets were sonicated in NP40 lysis buffer (1% NP40, 150 mM NaCl, 50 mM Tris, pH 8, 1× Halt). […] Total protein was detected using REVERT 700 according to the manufacturer instructions. […] All quantification was performed using LI-COR Image Studio version 5.2. For densitometry quantification, band signals were normalized to total protein stain in each blot using the equation below.

NanoLuc = assay: Western blot analysis of forskolin stimulation in cell culture: NanoLuc (RFP); details: 1 μM forskolin vs 0.1% DMSO, normalized band signal, n=3, adj. p=0.324
Description: (§2) For initial 384-well plate set up and western blot validation, forskolin (from 25 mM DMSO stock) was used as a positive control and DMSO was used as a vehicle control. For example, at 25 and 2.5 μM forskolin (0.1%, 0.01% DMSO), the corresponding vehicle control was 0.1% and 0.01% DMSO, respectively. Media was changed to NB-27 containing pharmacological agents (concentration specified in figure legends) and processed as described in each section 16 hrs after treatment.
(§3) Cell pellets were sonicated in NP40 lysis buffer (1% NP40, 150 mM NaCl, 50 mM Tris, pH 8, 1× Halt). Proteins were separated in 12% Tris-glycine gels and transferred to nitrocellulose membrane (Cat. No. 926-31090, LI-COR, NE, USA). Blots were briefly rinsed with TBS. Total protein was detected using REVERT 700 according to the manufacturer instructions. For detecting individual proteins, unless specified, blots were blocked with 5% milk-containing TBST (0.1% Tween20) for 1 hr at RT. Primary antibodies were added in the same blocking buffer for overnight incubation (1:1,000 rabbit RFP, Rockland, Cat. No., 600-401-379-RTU, and 1:1,000 mouse Psd95 Biolegend Cat. Nol, 810401)). […] All quantification was performed using LI-COR Image Studio version 5.2. For densitometry quantification, band signals were normalized to total protein stain in each blot using the equation below. […]

Psd95 = assay: Western blot analysis of forskolin stimulation in cell culture: Psd95; details: 1 μM forskolin vs 0.1% DMSO, normalized band signal, n=3, adj. p=1
Description: as §2, §3

cFos = assay: Western blot analysis of forskolin stimulation in cell culture: cFos; details: 1 μM forskolin vs 0.1% DMSO, normalized band signal, n=3, adj. p=0.0462
Description: as §2, §3

## COc1ccc(-c2ccc(=N)n(CCCC(=O)O)n2)cc1 [Gabazine]
[1]
  dose-response of luciferase activity, construct (1): dose-response is cell-type specific

## [Cl-].[K+] [KCl]
Primary cortical neurons
  biotin-labelling after induction of neuronal activity: enhanced biotin-labelling

## CNC1(c2ccccc2Cl)CCCCC1=O (stereo not drawn) [Ketamine]
[1]
  dose-response of luciferase activity, construct (1): dose-response is cell-type specific

## C=C[C@@]1(C)CC(=O)[C@]2(O)[C@@]3(C)[C@@H](O)CCC(C)(C)[C@@H]3[C@H](O)[C@H](OC(C)=O)[C@@]2(C)O1 [forskolin]
NanoLuc
  NanoLuc expression, FSK−DMSO: 0.583±0.267
Psd95
  Psd95 expression, FSK−DMSO: −0.048±0.1131
cFos
  cFos expression, FSK−DMSO: 3.232±0.769
